Experimental data reported in patent publication US20250281456A1, “METHODS OF TREATING CANCER BY INHIBITING BACTERIAL DNAK TO RESTORE ACTIVITIES OF ANTICANCER DRUGS” (University of Maryland, Baltimore, priority 2022, published 2025).
Where a SMILES comes first, the peptide text is derived from it. [ ]: non-standard residue; d: D form. Ac6c = NC1(C(=O)O)CCCCC1

Tests used:
[1] = test system: primary murine cancer cells constitutively expressing DnaK
HCT116 cells [2] = assay: cells
Procedure: (§1) FIG. 11. […] Parallel wells of untreated cells were used as negative control. Cell viability was assessed by using the trypan blue assay. Percentage of alive cells for each treatment are calculated as percentage using the untreated cell as reference. […] Statistical differences were tested using Student's t test. All statistical tests were two sided. p=***<0.001, **<0.01, *<0.05, ns=not significant.
(§2) FIG. 14. […] Parallel wells of untreated cells were used as negative control. Cell viability was assessed by using the trypan blue assay. Percentage of alive cells for each treatment are calculated as percentage using the untreated cell as reference. […] Statistical differences were tested using Student's t test. All statistical tests were two sided. p=*<0.05, **<0.01, ***<0.001.
(§3) To determine the effects of eM and eF-DnaKs on HCT116 and AGS cells lines treated with different anti-cancer drugs, cells were plated 200,000 cells/well in 6-wells plates. After 24 h, both eM-DnaK and eF-DnaK were added to the cultures at a concentration of 10 ug/ml. […] Parallel cultures of untreated cells were the negative controls. […] After 48 h of treatment with the anti-cancer drugs, cell monolayers were washed in PBS, trypsinized and cell viability was measured using the trypan blue assay. The trypan blue exclusion assay allows for a direct identification and enumeration of live (unstained) and dead (blue) cells in the given population.
(§4) More in detail, we pre-treated both exogenous DnaKs with ARV-1502 (25 μg/ml) before adding them to the culture of HCT116 or AGS cells. After 3 h of incubation the complex was added to the culture. After 24 h the cells were treated with the anti-cancer drugs and then subjected to count with trypan blue as previously described. Parallel cultures of cells treated with the drugs and DnaKs not complexed with ARV-1502 were used as control.

AGS cells = assay: cells
Procedure: as §1, §2, §3, §4

HCT116 cells [3] = assay: Western blot of eM-DnaK entry into HCT116 cells after incubation with ARV-1502; format: cell-based, human; settings: eM-DnaK incubated 3 hours with ARV-1502, added to cells 24 hours, then cisplatin 48 hours
Procedure: (§5) FIG. 17. A) Direct binding of eM-DnaK to ARV-1502 as determined by surface plasmon resonance (SPR). Association of ARV-1502 at different concentrations on 2274.9 response units of eM-DnaK immobilized on a CM5 biosensor chip proceeded at a flow rate of […] for 250 sec, followed by a 600 sec dissociation in HBS-EP.
Western blot was performed to verify the expression of DnaK in the mouse primary cancer cells, in the internalization of the exogenous DnaKs and to validate DnaK binding with ARV-1502. […] After 72 h since eM-DnaK treatment, cell monolayers were washed in cold PBS, trypsinized and resuspended in RIPA lysis buffer (Sigma-Aldrich, St. Louis, MO) in the presence of protease inhibitors (Sigma-Aldrich, St. Louis, MO). The protein concentration was measured by the Bradford assay (Bio-Rad Laboratories, Hercules, CA). Thirty micrograms of protein were resolved by SDS/PAGE, transferred to a polyvinylidene difluoride (PVDF) membrane using trans-blot turbo transfer system (Bio-Rad Laboratories, Hercules, CA), blocked in 5% nonfat dried milk in Tris-Buffered Saline (TBS) and probed overnight with either a mouse mAb against the V5 tag (#R960-25, Thermo Fisher Scientific, Walthman, MA) to detect the presence of eM-DnaK or a mouse mAb against […] (8H10D10) (#3700, Cell Signaling Technology, Danvers, MA). […]

human Hsp70 = human Hsp70 (Homo sapiens, UniProt P0DMV8); settings: previously demonstrated; cited from earlier work
human Hsp70, sequence (P0DMV8 whole entry): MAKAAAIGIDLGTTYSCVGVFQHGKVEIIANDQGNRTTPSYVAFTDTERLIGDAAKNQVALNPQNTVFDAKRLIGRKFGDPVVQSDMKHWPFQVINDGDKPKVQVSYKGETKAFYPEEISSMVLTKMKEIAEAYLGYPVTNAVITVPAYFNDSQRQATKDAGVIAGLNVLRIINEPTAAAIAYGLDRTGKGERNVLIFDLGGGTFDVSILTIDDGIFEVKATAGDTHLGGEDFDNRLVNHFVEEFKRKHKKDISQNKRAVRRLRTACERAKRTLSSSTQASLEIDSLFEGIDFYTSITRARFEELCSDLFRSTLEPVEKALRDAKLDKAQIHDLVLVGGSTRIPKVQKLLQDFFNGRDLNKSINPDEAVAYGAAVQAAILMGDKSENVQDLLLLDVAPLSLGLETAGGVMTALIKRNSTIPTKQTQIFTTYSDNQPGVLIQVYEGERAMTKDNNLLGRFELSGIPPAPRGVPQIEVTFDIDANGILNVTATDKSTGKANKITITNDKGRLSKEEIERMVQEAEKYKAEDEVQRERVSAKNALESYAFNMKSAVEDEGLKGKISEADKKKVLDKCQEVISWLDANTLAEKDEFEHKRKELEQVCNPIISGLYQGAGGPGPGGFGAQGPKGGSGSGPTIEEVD

Escherichia coli DnaK = Escherichia coli DnaK (Escherichia coli, UniProt P0A6Y8); settings: previously demonstrated; cited from earlier work
Escherichia coli DnaK, sequence (P0A6Y8 whole entry): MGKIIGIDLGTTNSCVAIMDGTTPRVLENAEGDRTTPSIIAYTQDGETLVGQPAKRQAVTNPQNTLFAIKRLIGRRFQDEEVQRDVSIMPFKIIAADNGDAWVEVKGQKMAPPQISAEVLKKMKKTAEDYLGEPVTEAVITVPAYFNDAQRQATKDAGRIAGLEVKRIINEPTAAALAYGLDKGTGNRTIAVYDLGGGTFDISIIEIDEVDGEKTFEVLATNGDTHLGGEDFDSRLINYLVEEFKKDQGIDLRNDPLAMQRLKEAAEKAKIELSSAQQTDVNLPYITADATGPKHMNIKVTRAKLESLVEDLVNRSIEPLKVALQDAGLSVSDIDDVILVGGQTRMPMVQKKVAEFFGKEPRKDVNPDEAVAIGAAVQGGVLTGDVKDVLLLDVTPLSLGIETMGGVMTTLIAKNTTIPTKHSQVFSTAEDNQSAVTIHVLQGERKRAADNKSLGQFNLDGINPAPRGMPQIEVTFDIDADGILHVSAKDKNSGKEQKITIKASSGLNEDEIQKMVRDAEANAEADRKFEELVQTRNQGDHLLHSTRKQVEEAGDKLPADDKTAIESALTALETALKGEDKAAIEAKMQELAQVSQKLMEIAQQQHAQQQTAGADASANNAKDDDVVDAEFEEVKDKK

[4] = target: eM-DnaK (Mycoplasma fermentans DnaK); assay: Surface plasmon resonance (SPR) binding of ARV-1502 to immobilized eM-DnaK; settings: 2274.9 RU eM-DnaK on CM5 chip, HBS-EP, 25° C., preliminary kinetic analysis
Procedure: as §5
Surface plasmon resonance (SPR) binding studies of DnaK and ARV-1502 were performed at 25° C. on a BIAcore T100 System (BIAcore, Inc., Piscataway, NY). We used as assay buffer HBS-EP, containing 10 mM HEPES, 150 mM NaCl, 0.05% surfactant P20, pH 7.4, 3 mM EDTA. DnaK (2274.9 RUs) was immobilized on CM5 sensor chips using the amine-coupling chemistry recommended by the manufacturer. Analytes were introduced into the flow cells at 35 μl/min in the running buffer. Association and dissociation were assessed for 250 seconds and 600 seconds. Resonance signals were corrected for nonspecific binding by subtracting the background of the control flow-cell. After each analysis, the sensor chip surfaces were regenerated with 10 mM glycine solution (pH 2.0) with MgCl 1M and equilibrated with the buffer before the next injection.

SMILES: CC(C)C[C@H](NC(=O)[C@H](Cc1ccc(O)cc1)NC(=O)[C@@H]1CCCN1C(=O)[C@H](CCCNC(=N)N)NC(=O)[C@@H]1CCCN1C(=O)[C@H](CCCCN)NC(=O)[C@H](CC(=O)O)NC(=O)[C@@H]1CCCN1C(=O)[C@H](CCCNC(=N)N)NC(=O)C1(N)CCCCC1)C(=O)N1CCC[C@H]1C(=O)N[C@@H](CCCNC(=N)N)C(=O)N1CCC[C@H]1C(=O)N[C@@H](CCCNC(=N)N)C(=O)N1CCC[C@H]1C(=O)N1CCC[C@H]1C(=O)N[C@@H](CCCNC(=N)N)C(=O)N1CCC[C@H]1C(=O)N[C@H](C(=O)N[C@@H](CCCNC(=N)N)C(N)=O)C(C)C [ARV-1502] (H-[Ac6c]RPDKPRPYLPRPRPPRPVR-NH2; N-terminus and C-terminus assumed)
- inhibitory effect ([1]; ARV-1502 alone): 11%
- improved anti-cancer effect ([1]; ARV-1502 with cisplatin or 5FU versus drug alone, for both drugs): 25%
- reduction in cell viability (HCT116 cells [2]; HCT116, ARV-1502 alone, on average (data not shown)): 5-8%
- restoration of anti-cancer activity of cisplatin and 5FU (HCT116 cells [2]; HCT116, in the presence of eF-DnaK pre-treated with ARV-1502 (25 μg/ml)): able to restore the drugs' anti-cancer activity
- restoration of anti-cancer activity of cisplatin and 5FU (HCT116 cells [2]; HCT116, in the presence of eM-DnaK pre-treated with ARV-1502 (25 μg/ml)): restoration of the original anti-cancer activity of each drug
- reduction in cell viability (AGS cells; ARV-1502 alone, on average (data not shown)): 5-8%
- restoration of anti-cancer activity of cisplatin and 5FU (AGS cells; in the presence of eF-DnaK pre-treated with ARV-1502 (25 μg/ml)): able to restore the drugs' anti-cancer activity
- restoration of anti-cancer activity of cisplatin and 5FU (AGS cells; in the presence of eM-DnaK pre-treated with ARV-1502 (25 μg/ml)): restoration of the original anti-cancer activity of each drug
- eM-DnaK entry into HCT116 cells (HCT116 cells [3]): does not prevent eM-DnaK entry into HCT116 cells
- interaction with human Hsp70 (human Hsp70): without interacting with human Hsp70
- DnaK binding and ATPase activity (Escherichia coli DnaK): bind the Escherichia coli DnaK substrate-binding domain and to reduce its ATPase activity
- Kd [4]: 1900 nM
